Results: PubChem BioAssay AID256 (DTP/NCI, 2004)
Several values for one entry are separate records, joined by “and”; a condition that tells them apart may be missing. Equal values may be shown once. Inconclusive results and toxic doses are left out.

Test system: CD2F1 mice, L1210 leukemia ip, survival T/C
Test: NCI In Vivo Anticancer Drug Screen. Data for tumor model L1210 Leukemia (intraperitoneal) in CD2F1 (CDF1) mice
Conditions: higher = longer survival
In short: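 Antitumor effect is scored in animals hosting a serially transplanted tumor. Values compare compound-dosed animals against vehicle-only controls as a simple quotient.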

[1] = endpoint: mean survival time, dose: 100.0 mg/kg/injection, schedule: Q04DX003 (ip), vehicle: saline with Tween-80
[2] = endpoint: mean survival time, dose: 200.0 mg/kg/injection, schedule: Q04DX003 (ip), vehicle: saline with Tween-80
[3] = endpoint: mean survival time, dose: 400.0 mg/kg/injection, schedule: Q04DX003 (ip), vehicle: saline with Tween-80
[4] = endpoint: mean survival time, dose: 100.0 mg/kg/injection, schedule: Q01DX001 (ip), vehicle: saline with Tween-80
[5] = endpoint: mean survival time, dose: 100.0 mg/kg/injection, schedule: Q01DX009 (ip), vehicle: Klucel (hydroxypropylcellulose) (HPC)
[6] = endpoint: mean survival time, dose: 200.0 mg/kg/injection, schedule: Q01DX001 (ip), vehicle: saline with Tween-80
[7] = endpoint: mean survival time, dose: 200.0 mg/kg/injection, schedule: Q01DX009 (ip), vehicle: Klucel (hydroxypropylcellulose) (HPC)
[8] = endpoint: mean survival time, dose: 400.0 mg/kg/injection, schedule: Q01DX001 (ip), vehicle: saline with Tween-80
[9] = endpoint: mean survival time, dose: 100.0 mg/kg/injection, schedule: Q01DX001 (ip), vehicle: saline
[10] = endpoint: mean survival time, dose: 200.0 mg/kg/injection, schedule: Q01DX001 (ip), vehicle: saline
[11] = endpoint: mean survival time, dose: 400.0 mg/kg/injection, schedule: Q01DX001 (ip), vehicle: saline
[12] = endpoint: mean survival time, dose: 100.0 mg/kg/injection, schedule: Q01DX009 (ip), vehicle: saline with Tween-80
[13] = endpoint: mean survival time, dose: 200.0 mg/kg/injection, schedule: Q01DX009 (ip), vehicle: saline with Tween-80
[14] = endpoint: mean survival time, dose: 400.0 mg/kg/injection, schedule: Q01DX009 (ip), vehicle: saline with Tween-80

`C=CCC1OC1CCCC1CO1` (centres undefined) was tested, and the T/C (endpoint: mean survival time, dose: 100.0 mg/kg/injection, schedule: Q01DX001 (ip), vehicle: saline sonified) was 94 % of control, the T/C (endpoint: mean survival time, dose: 100.0 mg/kg/injection, schedule: Q04DX002 (ip), vehicle: saline with Tween-80) was 97 % of control and the T/C (endpoint: mean survival time, dose: 200.0 mg/kg/injection, schedule: Q01DX001 (ip), vehicle: saline sonified) was 90 % of control. For the same molecule, the T/C (endpoint: mean survival time, dose: 200.0 mg/kg/injection, schedule: Q04DX002 (ip), vehicle: saline with Tween-80) was 101 % of control, the T/C (endpoint: mean survival time, dose: 400.0 mg/kg/injection, schedule: Q01DX001 (ip), vehicle: saline sonified) was 97 % of control and the T/C (endpoint: mean survival time, dose: 400.0 mg/kg/injection, schedule: Q04DX002 (ip), vehicle: saline with Tween-80) was 97 % of control.

`O=S(=O)(Nc1c(O)ccc2ccccc12)c1ccccc1` was tested, and the T/C [1] was 97 % of control, the T/C [2] was 97 % of control and the T/C [3] was 92 % of control.

`CCCCCCCCCCCCCCCCOc1ccc(NS(=O)(=O)c2ccc(NC(C)=O)cc2)cc1` was tested, and the T/C [4] was 96 % of control, the T/C [5] was 109 % of control and the T/C [6] was 91 % of control. The T/C [7] was 103 % of control, the T/C [8] was 93 % of control and the T/C (endpoint: mean survival time, dose: 400.0 mg/kg/injection, schedule: Q01DX009 (ip), vehicle: Klucel (hydroxypropylcellulose) (HPC)) was 98 % of control.

`[Se]=[P+](OC1CCCCC1)OC1CCCCC1` was tested, and the T/C [9] was 90 % of control, the T/C [10] was 92 % of control and the T/C [11] was 92 % of control.

With `CC(C(=O)O)=C(c1ccccc1)c1ccccc1` the T/C [1] was 90 % of control, the T/C [2] was 93 % of control and the T/C [3] was 87 % of control.

In the case of `O=C1C=C/C(=N\N=C2/C=CC(=O)O2)O1`, the T/C (endpoint: mean survival time, dose: 25.0 mg/kg/injection, schedule: Q04DX002 (ip), vehicle: saline with Tween-80) is reported as 100 % of control and the T/C (endpoint: mean survival time, dose: 50.0 mg/kg/injection, schedule: Q04DX002 (ip), vehicle: saline with Tween-80) is reported as 91 % of control.

`O=C(Cl)C12CC3CC(CC(C3)C1)C2` was tested, and the T/C (endpoint: mean survival time, dose: 12.5 mg/kg/injection, schedule: Q01DX009 (ip), vehicle: other) was 94 % of control, the T/C (endpoint: mean survival time, dose: 25.0 mg/kg/injection, schedule: Q01DX009 (ip), vehicle: other) was 94 % of control and the T/C (endpoint: mean survival time, dose: 50.0 mg/kg/injection, schedule: Q01DX009 (ip), vehicle: other) was 91 % of control. For the same molecule, the T/C (endpoint: mean survival time, dose: 100.0 mg/kg/injection, schedule: Q01DX009 (ip), vehicle: other) was 91 % of control.

In the case of `COc1cccc2c1C(=O)C1=C(C2=O)c2c(O)cc(CO)cc2C(O)C1O` (centres undefined), the T/C (endpoint: median survival time, dose: 3.12 mg/kg/injection, schedule: Q01DX005 (ip), vehicle: other) is reported as 101 % of control, the T/C (endpoint: median survival time, dose: 6.25 mg/kg/injection, schedule: Q01DX005 (ip), vehicle: other) is reported as 105 % of control and the T/C (endpoint: median survival time, dose: 12.5 mg/kg/injection, schedule: Q01DX005 (ip), vehicle: other) is reported as 103 % of control. The T/C (endpoint: median survival time, dose: 25.0 mg/kg/injection, schedule: Q01DX005 (ip), vehicle: other) was 109 % of control and the T/C (endpoint: median survival time, dose: 50.0 mg/kg/injection, schedule: Q01DX005 (ip), vehicle: other) was 119 % of control.

In the case of `CC(C)(C)N1C2CCCC21` (centres undefined), the T/C (endpoint: mean survival time, dose: 5.0 mg/kg/injection, schedule: Q01DX001 (ip), vehicle: saline) is reported as 106 % of control, the T/C (endpoint: mean survival time, dose: 5.0 mg/kg/injection, schedule: Q01DX009 (ip), vehicle: saline) is reported as 102 % of control and the T/C (endpoint: mean survival time, dose: 10.0 mg/kg/injection, schedule: Q01DX001 (ip), vehicle: saline) is reported as 106 % of control. For the same molecule, the T/C (endpoint: mean survival time, dose: 10.0 mg/kg/injection, schedule: Q01DX009 (ip), vehicle: saline) was 102 % of control, the T/C (endpoint: mean survival time, dose: 20.0 mg/kg/injection, schedule: Q01DX001 (ip), vehicle: saline) was 95 % of control and the T/C (endpoint: mean survival time, dose: 20.0 mg/kg/injection, schedule: Q01DX009 (ip), vehicle: saline) was 100 % of control.

For `COc1cc2c(cc1OC)-c1c(cnn1C1OC(COC(C)=O)C(OC(C)=O)C(OC(C)=O)C1OC(C)=O)CC2` (centres undefined), the T/C (endpoint: mean survival time, dose: 12.5 mg/kg/injection, schedule: Q01DX005 (ip), vehicle: other) was 103 % of control, the T/C (endpoint: mean survival time, dose: 25.0 mg/kg/injection, schedule: Q01DX005 (ip), vehicle: other) was 93 % of control and the T/C (endpoint: mean survival time, dose: 50.0 mg/kg/injection, schedule: Q01DX005 (ip), vehicle: other) was 90 % of control. The T/C (endpoint: mean survival time, dose: 100.0 mg/kg/injection, schedule: Q01DX005 (ip), vehicle: other) was 87 % of control.

For `N#CC(=C=[N-])[n+]1ccccc1`, the T/C (endpoint: mean survival time, dose: 12.5 mg/kg/injection, schedule: Q04DX003 (ip), vehicle: Klucel (hydroxypropylcellulose) (HPC)) was 98 % of control and the T/C (endpoint: mean survival time, dose: 25.0 mg/kg/injection, schedule: Q04DX003 (ip), vehicle: Klucel (hydroxypropylcellulose) (HPC)) was 100 % of control.

In the case of `O=C(C(F)(F)F)C(F)(F)F` (tested in a mixture with another compound), the T/C (endpoint: mean survival time, dose: 25.0 mg/kg/injection, schedule: Q04DX003 (ip), vehicle: other) is reported as 100 % of control, the T/C (endpoint: mean survival time, dose: 50.0 mg/kg/injection, schedule: Q04DX003 (ip), vehicle: other) is reported as 95 % of control and the T/C (endpoint: mean survival time, dose: 100.0 mg/kg/injection, schedule: Q04DX003 (ip), vehicle: other) is reported as 94 % of control. For the same molecule, the T/C (endpoint: mean survival time, dose: 200.0 mg/kg/injection, schedule: Q04DX003 (ip), vehicle: other) was 92 % of control.

For `[Au].[NH-]C1CCCCC1[NH-].[NH-]C1CCCCC1[NH-]` (centres undefined), the T/C (endpoint: mean survival time, dose: 3.13 mg/kg/injection, schedule: Q04DX003 (ip), vehicle: saline) was 97 % of control, the T/C (endpoint: mean survival time, dose: 6.25 mg/kg/injection, schedule: Q04DX003 (ip), vehicle: saline) was 96 % of control and the T/C (endpoint: mean survival time, dose: 12.5 mg/kg/injection, schedule: Q04DX003 (ip), vehicle: saline) was 97 % of control. For the same molecule, the T/C (endpoint: mean survival time, dose: 25.0 mg/kg/injection, schedule: Q04DX003 (ip), vehicle: saline) was 100 % of control.

In the case of `COc1ccc2[nH]c3c(c2c1)CCNC3CC(C)CCC=C(C)C` (centres undefined), the T/C (endpoint: mean survival time, dose: 6.25 mg/kg/injection, schedule: Q01DX009 (ip), vehicle: Klucel (hydroxypropylcellulose) (HPC)) is reported as 100 % of control and 110 % of control, the T/C (endpoint: mean survival time, dose: 12.5 mg/kg/injection, schedule: Q01DX009 (ip), vehicle: Klucel (hydroxypropylcellulose) (HPC)) is reported as 98 % of control and 102 % of control and the T/C (endpoint: mean survival time, dose: 25.0 mg/kg/injection, schedule: Q01DX009 (ip), vehicle: Klucel (hydroxypropylcellulose) (HPC)) is reported as 97 % of control and 101 % of control. For the same molecule, the T/C (endpoint: mean survival time, dose: 50.0 mg/kg/injection, schedule: Q01DX009 (ip), vehicle: Klucel (hydroxypropylcellulose) (HPC)) was 100 % of control and 103 % of control, the T/C [5] was 86 % of control and 100 % of control and the T/C [7] was 108 % of control.

`CO[C@@]12[C@@H]3N[C@@H]3CN1C1=C(C(=O)C(NCC3CCCO3)=C(C)C1=O)[C@@H]2COC(N)=O` (some centres undefined) was tested, and the T/C (endpoint: mean survival time, dose: 1.5 mg/kg/injection, schedule: Q01DX001 (ip), vehicle: distilled water + Tween-80) was 111 % of control, the T/C (endpoint: mean survival time, dose: 3.0 mg/kg/injection, schedule: Q01DX001 (ip), vehicle: distilled water + Tween-80) was 114 % of control and 116 % of control and the T/C (endpoint: mean survival time, dose: 6.0 mg/kg/injection, schedule: Q01DX001 (ip), vehicle: distilled water + Tween-80) was 121 % of control. For the same molecule, the T/C (endpoint: mean survival time, dose: 36.0 mg/kg/injection, schedule: Q01DX001 (ip), vehicle: distilled water + Tween-80) was 158 % of control.

For `CN(C)CC1CCCCC(CN(C)C)C1=O` (centres undefined), the T/C (endpoint: mean survival time, dose: 75.0 mg/kg/injection, schedule: Q01DX001 (ip), vehicle: saline) was 120 % of control, the T/C (endpoint: mean survival time, dose: 150.0 mg/kg/injection, schedule: Q01DX001 (ip), vehicle: saline) was 104 % of control and the T/C (endpoint: mean survival time, dose: 300.0 mg/kg/injection, schedule: Q01DX001 (ip), vehicle: saline) was 104 % of control.

With `O=C(CCl)OCC(Cl)Cl` the T/C [12] was 104 % of control and the T/C [13] was 112 % of control.

`CC(=O)OCC1OC(OC2C(COC(C)=O)OC(OC(C)=O)C(OC(C)=O)C2OC(C)=O)C(OC(C)=O)C(OC(C)=O)C1OC(C)=O` (centres undefined) was tested, and the T/C [9] was 100 % of control, the T/C [10] was 91 % of control and the T/C [11] was 97 % of control.

In the case of `CCCCNC(=O)C(C)S(=O)(=O)c1ccc(C)cc1` (centres undefined), the T/C [12] is reported as 103 % of control, the T/C [13] is reported as 97 % of control and the T/C [14] is reported as 95 % of control.

`CN(C)C(=O)c1ccc[n+](CC(=O)NCc2ccccc2)c1` was tested, and the T/C (endpoint: mean survival time, dose: 100.0 mg/kg/injection, schedule: Q04DX003 (ip), vehicle: saline) was 98 % of control and the T/C (endpoint: mean survival time, dose: 200.0 mg/kg/injection, schedule: Q04DX003 (ip), vehicle: saline) was 98 % of control.

With `N#CCCN(CC(O)c1cc2ccccc2c2ccccc12)C1CCCCC1` (centres undefined) the T/C [4] was 91 % of control, the T/C [12] was 106 % of control and the T/C [6] was 90 % of control. The T/C [13] was 97 % of control, the T/C [8] was 92 % of control and the T/C [14] was 97 % of control.

For `COC(=N)CC(=O)C(C)(C)C`, the T/C (endpoint: mean survival time, dose: 100.0 mg/kg/injection, schedule: Q01DX001 (ip), vehicle: other) was 102 % of control, the T/C (endpoint: mean survival time, dose: 200.0 mg/kg/injection, schedule: Q01DX001 (ip), vehicle: other) was 97 % of control and the T/C (endpoint: mean survival time, dose: 400.0 mg/kg/injection, schedule: Q01DX001 (ip), vehicle: other) was 97 % of control.
